Experiments:
[1] = test system: Histone deacetylase; experiment: Inhibition of HDAC in human 697 cells assessed as increase in H3 acetylation at 1000 nM incubated for 16 hrs by ELISA; type: cell-based; settings: human, 697, 16 h, 1 µM
[2] = Selectivity ratio of IC50 for C-terminal GST-tagged human HDAC5 to IC50 for human N-terminal GST-tagged HDAC6 expressed in baculovirus infected sf9 insect cells
[3] = Selectivity ratio of IC50 for N-terminal GST-tagged human HDAC7 (518 to end residues) expressed in baculovirus infected sf9 insect cells to IC50 for human N-terminal GST-tagged HDAC6 expressed in baculovirus infected sf9 insect cells
[4] = Selectivity ratio of IC50 for C-terminal His-tagged human HDAC8 expressed in baculovirus infected sf9 insect cells to IC50 for human N-terminal GST-tagged HDAC6 expressed in baculovirus infected sf9 insect cells
[5] = Selectivity ratio of IC50 for human HDAC4 expressed in baculovirus infected sf9 insect cells to IC50 for human N-terminal GST-tagged HDAC6 expressed in baculovirus infected sf9 insect cells
[6] = Stability in human liver S9 fraction assessed as parent compound remaining at 5 uM after 90 mins in presence of NADPH by LC-MS/MS analysis; type: ADME, subcellular; settings: read-out: Stability
[7] = Stability in rat plasma assessed as parent compound remaining at 100 uM after 4 hrs by LC-MS/MS analysis; type: ADME, cell-free; settings: read-out: Stability
[8] = Stability in human plasma assessed as parent compound remaining at 100 uM after 4 hrs by LC-MS/MS analysis; type: ADME, cell-free; settings: read-out: Stability
[9] = Stability in rat liver S9 fraction assessed as parent compound remaining at 5 uM after 90 mins in presence of NADPH by LC-MS/MS analysis; type: ADME, subcellular; settings: read-out: Stability
[10] = Selectivity ratio of IC50 for C-terminal His-tagged human HDAC9 (604 to 1066 residues) expressed in baculovirus infected sf9 insect cells to IC50 for human N-terminal GST-tagged HDAC6 expressed in baculovirus infected sf9 insect cells
[11] = Selectivity ratio of IC50 for N-terminal Flag-tagged human HDAC10 (2 to 631 residues) expressed in baculovirus infected sf9 insect cells to IC50 for human N-terminal GST-tagged HDAC6 expressed in baculovirus infected sf9 insect cells
[12] = Selectivity ratio of IC50 for N-terminal His-tagged human HDAC11 expressed in baculovirus expression system to IC50 for human N-terminal GST-tagged HDAC6 expressed in baculovirus infected sf9 insect cells
[13] = test system: 697; experiment: Cytotoxicity against human 697 cells after 48 hrs by CellTiter 96 aqueous one solution assay; type: cell-based; settings: Homo sapiens, 697, 48 h
[14] = test system: PBMC; experiment: Cytotoxicity against human PBMC cells after 72 hrs by CellTiter 96 aqueous one solution assay; type: cell-based
[15] = biological target: T1, Protein deacetylase HDAC6 (Homo sapiens, UniProt Q9UBN7); experiment: biochemical
T1 sequence (Q9UBN7 whole entry): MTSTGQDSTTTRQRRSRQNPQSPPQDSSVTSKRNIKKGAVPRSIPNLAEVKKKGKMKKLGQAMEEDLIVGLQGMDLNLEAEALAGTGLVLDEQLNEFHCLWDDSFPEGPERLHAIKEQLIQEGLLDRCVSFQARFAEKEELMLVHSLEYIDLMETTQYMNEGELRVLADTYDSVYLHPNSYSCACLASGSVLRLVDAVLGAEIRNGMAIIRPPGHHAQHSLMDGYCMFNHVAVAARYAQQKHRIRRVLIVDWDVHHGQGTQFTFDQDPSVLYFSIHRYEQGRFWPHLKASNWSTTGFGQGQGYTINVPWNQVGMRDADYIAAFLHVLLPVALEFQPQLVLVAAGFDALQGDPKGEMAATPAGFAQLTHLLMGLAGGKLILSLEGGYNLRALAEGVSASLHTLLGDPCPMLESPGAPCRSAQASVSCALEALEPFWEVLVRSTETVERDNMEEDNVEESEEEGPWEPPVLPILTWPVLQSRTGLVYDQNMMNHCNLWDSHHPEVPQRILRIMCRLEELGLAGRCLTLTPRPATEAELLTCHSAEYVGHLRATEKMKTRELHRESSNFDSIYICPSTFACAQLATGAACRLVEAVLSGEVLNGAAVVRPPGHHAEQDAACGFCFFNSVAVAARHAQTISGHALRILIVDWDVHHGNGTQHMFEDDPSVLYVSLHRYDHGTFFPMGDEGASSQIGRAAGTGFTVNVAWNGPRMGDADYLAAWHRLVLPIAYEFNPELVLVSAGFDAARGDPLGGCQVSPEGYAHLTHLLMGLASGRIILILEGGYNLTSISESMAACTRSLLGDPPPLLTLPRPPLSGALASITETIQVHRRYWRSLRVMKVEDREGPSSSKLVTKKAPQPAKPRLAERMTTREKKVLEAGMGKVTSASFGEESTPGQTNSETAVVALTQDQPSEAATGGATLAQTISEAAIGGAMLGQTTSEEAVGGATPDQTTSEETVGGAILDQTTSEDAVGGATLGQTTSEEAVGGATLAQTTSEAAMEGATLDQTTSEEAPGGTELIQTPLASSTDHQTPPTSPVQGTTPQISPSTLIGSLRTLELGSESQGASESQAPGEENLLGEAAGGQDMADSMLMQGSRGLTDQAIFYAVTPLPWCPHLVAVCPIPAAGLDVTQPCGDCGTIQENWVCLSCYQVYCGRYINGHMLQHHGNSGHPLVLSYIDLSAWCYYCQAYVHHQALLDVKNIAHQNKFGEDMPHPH
Description: Inhibition of recombinant full length human N-terminal GST-tagged HDAC6 expressed in baculovirus infected sf9 insect cells pretreated with compound followed by Fluor de Lys deacetylase substrate addition by fluorescence method

[16] = biological target: Histone deacetylase 3/Nuclear receptor corepressor 2 (HDAC3/NCoR2) (Homo sapiens, UniProt O15379); experiment: Inhibition of C-terminal His-tagged human HDAC3 (1 to 428 residues)/N-terminal GST tagged human NCOR2 (395 to 489) expressed in baculovirus infected sf9 insect cells pretreated with compound followed by Fluor de Lys deacetylase substrate addition by fluorescence method
Histone deacetylase 3/Nuclear receptor corepressor 2 (HDAC3/NCoR2), sequence (O15379 whole entry, the tested form may be a part): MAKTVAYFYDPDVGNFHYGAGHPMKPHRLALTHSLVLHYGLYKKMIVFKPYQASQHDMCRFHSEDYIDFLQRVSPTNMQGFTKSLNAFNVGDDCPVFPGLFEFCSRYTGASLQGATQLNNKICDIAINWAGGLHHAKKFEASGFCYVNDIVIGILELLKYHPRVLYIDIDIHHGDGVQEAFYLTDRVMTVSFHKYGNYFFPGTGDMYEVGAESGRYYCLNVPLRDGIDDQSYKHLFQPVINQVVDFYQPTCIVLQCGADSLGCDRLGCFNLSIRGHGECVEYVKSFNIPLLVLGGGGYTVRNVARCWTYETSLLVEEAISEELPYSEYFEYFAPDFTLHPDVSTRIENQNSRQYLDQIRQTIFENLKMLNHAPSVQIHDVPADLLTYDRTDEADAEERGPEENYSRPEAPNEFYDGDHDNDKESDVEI
Histone deacetylase 3/Nuclear receptor corepressor 2 (HDAC3/NCoR2), sequence (Q9Y618 whole entry, further chain, the tested form may be a part): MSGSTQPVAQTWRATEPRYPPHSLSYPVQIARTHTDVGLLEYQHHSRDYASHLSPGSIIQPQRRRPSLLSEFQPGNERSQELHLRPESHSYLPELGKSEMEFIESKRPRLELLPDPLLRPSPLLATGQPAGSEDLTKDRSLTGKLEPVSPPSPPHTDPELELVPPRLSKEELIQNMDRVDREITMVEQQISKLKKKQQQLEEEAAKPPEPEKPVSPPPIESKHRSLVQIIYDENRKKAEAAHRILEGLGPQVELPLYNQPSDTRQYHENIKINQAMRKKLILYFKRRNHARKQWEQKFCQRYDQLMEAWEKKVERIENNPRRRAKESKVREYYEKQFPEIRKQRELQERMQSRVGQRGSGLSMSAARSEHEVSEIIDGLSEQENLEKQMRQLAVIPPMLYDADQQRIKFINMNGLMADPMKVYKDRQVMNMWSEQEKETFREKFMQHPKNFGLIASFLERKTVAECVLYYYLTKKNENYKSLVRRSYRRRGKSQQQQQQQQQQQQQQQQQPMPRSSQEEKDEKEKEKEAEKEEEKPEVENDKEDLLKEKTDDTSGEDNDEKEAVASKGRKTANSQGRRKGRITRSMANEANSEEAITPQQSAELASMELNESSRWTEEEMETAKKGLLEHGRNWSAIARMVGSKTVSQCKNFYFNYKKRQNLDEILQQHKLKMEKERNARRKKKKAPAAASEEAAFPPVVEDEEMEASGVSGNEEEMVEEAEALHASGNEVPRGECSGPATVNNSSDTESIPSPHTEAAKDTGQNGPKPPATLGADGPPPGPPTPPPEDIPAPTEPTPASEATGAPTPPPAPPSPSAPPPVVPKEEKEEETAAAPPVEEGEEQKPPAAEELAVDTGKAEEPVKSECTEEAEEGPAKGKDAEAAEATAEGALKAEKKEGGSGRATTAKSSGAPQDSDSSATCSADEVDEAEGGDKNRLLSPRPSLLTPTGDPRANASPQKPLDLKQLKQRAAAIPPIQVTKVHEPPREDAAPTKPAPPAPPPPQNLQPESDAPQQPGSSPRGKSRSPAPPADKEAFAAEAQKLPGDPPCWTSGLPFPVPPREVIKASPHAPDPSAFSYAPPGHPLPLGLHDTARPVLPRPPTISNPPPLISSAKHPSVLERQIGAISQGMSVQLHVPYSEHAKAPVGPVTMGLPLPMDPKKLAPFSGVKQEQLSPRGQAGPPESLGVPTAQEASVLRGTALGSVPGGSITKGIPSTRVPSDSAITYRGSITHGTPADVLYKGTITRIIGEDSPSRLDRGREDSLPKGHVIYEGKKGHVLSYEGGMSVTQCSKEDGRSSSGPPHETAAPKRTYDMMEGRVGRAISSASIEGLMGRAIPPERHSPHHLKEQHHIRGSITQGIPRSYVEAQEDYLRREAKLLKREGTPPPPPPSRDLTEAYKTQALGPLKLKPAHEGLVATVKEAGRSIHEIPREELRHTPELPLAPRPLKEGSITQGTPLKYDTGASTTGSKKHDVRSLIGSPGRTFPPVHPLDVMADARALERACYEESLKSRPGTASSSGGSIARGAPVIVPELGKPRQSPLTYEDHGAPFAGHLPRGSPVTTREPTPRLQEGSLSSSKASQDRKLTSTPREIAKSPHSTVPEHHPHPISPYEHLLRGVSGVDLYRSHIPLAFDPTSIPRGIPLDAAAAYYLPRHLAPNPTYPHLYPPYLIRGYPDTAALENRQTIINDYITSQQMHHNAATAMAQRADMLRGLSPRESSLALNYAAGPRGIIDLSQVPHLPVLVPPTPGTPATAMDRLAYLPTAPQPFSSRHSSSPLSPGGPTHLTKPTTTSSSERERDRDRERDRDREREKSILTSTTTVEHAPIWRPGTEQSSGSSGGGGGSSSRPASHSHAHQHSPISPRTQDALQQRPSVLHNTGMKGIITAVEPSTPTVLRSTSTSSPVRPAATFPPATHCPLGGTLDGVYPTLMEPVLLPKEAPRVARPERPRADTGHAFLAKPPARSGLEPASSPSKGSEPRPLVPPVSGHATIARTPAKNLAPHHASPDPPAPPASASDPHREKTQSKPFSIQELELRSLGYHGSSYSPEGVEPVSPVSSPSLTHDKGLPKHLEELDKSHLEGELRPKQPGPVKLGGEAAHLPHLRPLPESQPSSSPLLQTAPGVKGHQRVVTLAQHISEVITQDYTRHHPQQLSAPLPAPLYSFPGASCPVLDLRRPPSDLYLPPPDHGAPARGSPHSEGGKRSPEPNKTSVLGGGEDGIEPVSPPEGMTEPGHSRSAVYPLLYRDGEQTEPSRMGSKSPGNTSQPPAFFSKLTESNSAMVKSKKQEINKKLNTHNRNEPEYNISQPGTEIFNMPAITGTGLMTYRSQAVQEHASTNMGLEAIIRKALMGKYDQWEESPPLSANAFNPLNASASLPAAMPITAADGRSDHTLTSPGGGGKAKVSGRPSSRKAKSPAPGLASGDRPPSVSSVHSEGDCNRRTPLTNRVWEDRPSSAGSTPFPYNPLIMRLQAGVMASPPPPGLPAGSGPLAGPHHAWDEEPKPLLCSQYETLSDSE

For Cn1c(Sc2c(F)cc(C(=O)NO)cc2F)nnc1-c1cccnn1, the “inhibition (INH)” value [1] was “Active”, the “Ratio IC50” value [2] was 34 and the “Ratio IC50” value [3] was 15. The “Ratio IC50” value [4] was 34, the “Ratio IC50” value [5] was 33 and the remaining at […], 5 µM [6] was 79%. The remaining at 4 h, 100 µM [7] was 98%, the remaining at 4 h, 100 µM [8] was 100% and the remaining at […], 5 µM [9] was 58%. The “Ratio IC50” value [10] was 16, the “Ratio IC50” value [11] was 372 and the “Ratio IC50” value [12] was 278. The IC50 [13] was > 1000 nM, the IC50 [14] was > 1000 nM and the IC50 [15] was 13 nM.

For O=C(NO)c1cc(F)c(Cn2nnc(-c3ccco3)n2)c(F)c1, the “inhibition (INH)” value [1] was “Active”, the “Ratio IC50” value [2] was 194 and the “Ratio IC50” value [3] was 330. For the same molecule, the “Ratio IC50” value [4] was 210, the “Ratio IC50” value [5] was 219 and the remaining at […], 5 µM [6] was 94%. The remaining at 4 h, 100 µM [7] was 100%, the remaining at 4 h, 100 µM [8] was 100% and the remaining at […], 5 µM [9] was 68%. For the same molecule, the “Ratio IC50” value [10] was 192, the “Ratio IC50” value [11] was 876 and the “Ratio IC50” value [12] was 259. For the same molecule, the IC50 [13] was > 1000 nM, the IC50 [14] was > 1000 nM and the IC50 [15] was 3 nM.

Molecule NCc1ccc(C(=O)NO)cc1 has an IC50 [16] of 5 µM.

Molecule Nc1ccc(C(=O)NO)cc1 has an IC50 [16] of 18.4 µM and an IC50 [15] of 1390 nM.

For Cn1c(Sc2c(F)cc(C(=O)NO)cc2F)nnc1-c1cccc(CN2CCCCCC2)c1, the “inhibition (INH)” value [1] was “Active”, the “Ratio IC50” value [2] was 82 and the “Ratio IC50” value [3] was 79. For the same molecule, the “Ratio IC50” value [4] was 41, the “Ratio IC50” value [5] was 86 and the remaining at […], 5 µM [6] was 78%. The remaining at 4 h, 100 µM [7] was 85%, the remaining at 4 h, 100 µM [8] was 91% and the remaining at […], 5 µM [9] was 55%. The “Ratio IC50” value [10] was 23, the “Ratio IC50” value [11] was 310 and the “Ratio IC50” value [12] was 169. The IC50 [13] was > 1000 nM, the IC50 [14] was > 1000 nM and the IC50 [15] was 10 nM.
